Reference: ChEMBL document CHEMBL3045424, “Synthesis and antimalarial activity evaluation of some isoquine analogues” (2011)

Assays:
[1] = system: Plasmodium falciparum; assay: Antimalarial activity against chloroquine-sensitive Plasmodium falciparum 3D7 infected O positive human red blood cells assessed as dead rings and schizonts at 50 ug/ml after 40 hr by Giemsa staining; format: functional
[2] = system: Plasmodium falciparum; assay: Antimalarial activity against chloroquine-sensitive Plasmodium falciparum 3D7 infected O positive human red blood cells assessed as dead rings and schizonts at 0.4 ug/ml after 40 hr by Giemsa staining; format: functional

Q: How did the Activity [1] turn out when Oc1ccc(NCc2ccc(Nc3ccnc4cc(Cl)ccc34)cc2O)cc1 was run?
A: 28.5%

Q: Oc1cc(Nc2ccnc3cc(Cl)ccc23)ccc1CNC1CCNCC1 was tested. Which Activity [1] did it give?
A: 33%

Q: Which Activity [1] does the source give for Oc1cc(Nc2ccnc3cc(Cl)ccc23)ccc1CNc1ccc(Br)cc1F here?
A: 6.5%

Q: For OCCNCc1ccc(Nc2ccnc3cc(Cl)ccc23)cc1O, which Activity [1] is on record?
A: 36.5%

Q: For Oc1cc(Nc2ccnc3cc(Cl)ccc23)ccc1CNc1ccc(F)cc1, which Activity [1] is on record?
A: 25.5%

Q: For NC(=O)NCc1ccc(Nc2ccnc3cc(Cl)ccc23)cc1O, which Activity [1] is on record?
A: 24%

Q: How did the Activity [2] turn out when CCN(CC)CCCC(C)Nc1ccnc2cc(Cl)ccc12 (stereo not drawn) [CHLOROQUINE] was run?
A: 68.5%

Q: With O=C(O)c1ccc(NCc2ccc(Nc3ccnc4cc(Cl)ccc34)cc2O)cc1 as the compound, how does the Activity [1] read?
A: 34%
